Reference: ChEMBL document CHEMBL5154876, “Design, synthesis and promising anti-tumor efficacy of novel imidazo[1,2-a]pyridine derivatives as potent autotaxin allosteric inhibitors” (Eur J Med Chem, 2022)

Assays:
MCF7 = experiment: Cytotoxicity against human MCF-7 cells assessed as inhibition of cell growth incubated for 72 hrs by MTT assay; type: functional, cell-based; settings: MCF7, 72 h
MDA-MB-231 = experiment: Cytotoxicity against human MDA-MB-231 cells assessed as inhibition of cell growth incubated for 72 hrs by MTT assay; type: functional, cell-based; settings: MDA-MB-231, 72 h
A549 = experiment: Cytotoxicity against human A549 cells assessed as inhibition of cell growth incubated for 72 hrs by MTT assay; type: functional, cell-based; settings: A549, 72 h
NCI-H1581 = experiment: Cytotoxicity against human NCI-H1581 cells assessed as inhibition of cell growth incubated for 72 hrs by MTT assay; type: functional, cell-based; settings: NCI-H1581, 72 h
Hep 3B2 = experiment: Cytotoxicity against human Hep3B cells assessed as inhibition of cell growth incubated for 72 hrs by MTT assay; type: functional, cell-based
RAW264.7 [1] = experiment: Cytotoxicity against mouse RAW264.7 cells assessed as inhibition of cell growth incubated for 72 hrs by MTT assay; type: functional, cell-based; settings: RAW264.7, 72 h
RAW264.7 [2] = experiment: Antimigratory activity against mouse RAW264.7 cells assessed as decrease in cell migration rate measured upto 72 hrs by scratch wound healing assay; type: functional, cell-based; settings: DDE = dose-dependent effect
RAW264.7 [3] = experiment: Inhibition of colony formation in mouse RAW264.7 cells incubated for 72 hrs by crystal violet staining method; type: functional, cell-based; settings: dose 0.1-1 µM, DDE = dose-dependent effect
RAW264.7 [4] = experiment: Induction of apoptosis in mouse RAW264.7 cells assessed as apoptotic cells measured after 48 hrs by acridine orange/ethidium bromide staining based fluorescence microscopy; type: functional, cell-based; settings: dose 0.1-1 µM, DDE = dose-dependent effect
RAW264.7 [5] = experiment: Induction of apoptosis in mouse RAW264.7 cells assessed as apoptotic cells by measuring blue fluorescence after 48 hrs by Hoechst33342 staining based fluorescence microscopy; type: functional, cell-based; settings: dose 0.1-1 µM, DDE = dose-dependent effect
RAW264.7 [6] = experiment: Induction of apoptosis in mouse RAW264.7 cells assessed as viable cells at 0.1 uM after 48 hrs by Annexin V-FITC/PI based flow cytometric analysis (RVB=94.1%); type: functional; settings: read-out: Activity
RAW264.7 [7] = experiment: Induction of apoptosis in mouse RAW264.7 cells assessed as early apoptotic cells at 0.1 uM after 48 hrs by Annexin V-FITC/PI based flow cytometric analysis (RVB=5.57%); type: functional
RAW264.7 [8] = experiment: Induction of apoptosis in mouse RAW264.7 cells assessed as late apoptotic cells at 0.1 uM after 48 hrs by Annexin V-FITC/PI based flow cytometric analysis (RVB=0.098%); type: functional
RAW264.7 [9] = experiment: Induction of apoptosis in mouse RAW264.7 cells assessed as viable cells at 0.25 uM after 48 hrs by Annexin V-FITC/PI based flow cytometric analysis (RVB=94.1%); type: functional; settings: read-out: Activity
RAW264.7 [10] = experiment: Induction of apoptosis in mouse RAW264.7 cells assessed as late apoptotic cells at 0.25 uM after 48 hrs by Annexin V-FITC/PI based flow cytometric analysis (RVB=0.098%); type: functional
RAW264.7 [11] = experiment: Induction of apoptosis in mouse RAW264.7 cells assessed as early apoptotic cells at 0.5 uM after 48 hrs by Annexin V-FITC/PI based flow cytometric analysis (RVB=5.57%); type: functional
RAW264.7 [12] = experiment: Induction of apoptosis in mouse RAW264.7 cells assessed as late apoptotic cells at 0.5 uM after 48 hrs by Annexin V-FITC/PI based flow cytometric analysis (RVB=0.098%); type: functional
RAW264.7 [13] = experiment: Induction of apoptosis in mouse RAW264.7 cells assessed as necrotic cells at 0.5 uM after 48 hrs by Annexin V-FITC/PI based flow cytometric analysis (RVB=0.26%); type: functional
RAW264.7 [14] = experiment: Induction of apoptosis in mouse RAW264.7 cells assessed as viable cells at 1 uM after 48 hrs by Annexin V-FITC/PI based flow cytometric analysis (RVB=94.1%); type: functional; settings: read-out: Activity
RAW264.7 [15] = experiment: Induction of apoptosis in mouse RAW264.7 cells assessed as early apoptotic cells at 1 uM after 48 hrs by Annexin V-FITC/PI based flow cytometric analysis (RVB=5.57%); type: functional
RAW264.7 [16] = experiment: Induction of apoptosis in mouse RAW264.7 cells assessed as late apoptotic cells at 1 uM after 48 hrs by Annexin V-FITC/PI based flow cytometric analysis (RVB=0.098%); type: functional
RAW264.7 [17] = experiment: Induction of apoptosis in mouse RAW264.7 cells assessed as necrotic cells at 1 uM after 48 hrs by Annexin V-FITC/PI based flow cytometric analysis (RVB=0.26%); type: functional
RAW264.7 [18] = experiment: Induction of cell cycle arrest in mouse RAW264.7 cells assessed as accumulation of cells in G1 phase at 0.1 uM incubated for 24 hrs by PI/RNase staining based flow cytometric analysis (RVB = 55.06%); type: functional
RAW264.7 [19] = experiment: Induction of cell cycle arrest in mouse RAW264.7 cells assessed as accumulation of cells in S phase at 0.1 uM incubated for 24 hrs by PI/RNase staining based flow cytometric analysis (RVB = 34.03%); type: functional
RAW264.7 [20] = experiment: Induction of cell cycle arrest in mouse RAW264.7 cells assessed as accumulation of cells in S phase at 0.25 uM incubated for 24 hrs by PI/RNase staining based flow cytometric analysis (RVB = 34.03%); type: functional
RAW264.7 [21] = experiment: Induction of cell cycle arrest in mouse RAW264.7 cells assessed as accumulation of cells in G2 phase at 0.25 uM incubated for 24 hrs by PI/RNase staining based flow cytometric analysis (RVB = 10.90%); type: functional
RAW264.7 [22] = experiment: Induction of cell cycle arrest in mouse RAW264.7 cells assessed as accumulation of cells in G1 phase at 0.5 uM incubated for 24 hrs by PI/RNase staining based flow cytometric analysis (RVB = 55.06%); type: functional
RAW264.7 [23] = experiment: Induction of cell cycle arrest in mouse RAW264.7 cells assessed as accumulation of cells in S phase at 0.5 uM incubated for 24 hrs by PI/RNase staining based flow cytometric analysis (RVB = 34.03%); type: functional
RAW264.7 [24] = experiment: Induction of cell cycle arrest in mouse RAW264.7 cells assessed as accumulation of cells in G1 phase at 1 uM incubated for 24 hrs by PI/RNase staining based flow cytometric analysis (RVB = 55.06%); type: functional
RAW264.7 [25] = experiment: Induction of cell cycle arrest in mouse RAW264.7 cells assessed as accumulation of cells in S phase at 1 uM incubated for 24 hrs by PI/RNase staining based flow cytometric analysis (RVB = 34.03%); type: functional
RAW264.7 [26] = experiment: Induction of cell cycle arrest in mouse RAW264.7 cells assessed as accumulation of cells in G2 phase at 1 uM incubated for 24 hrs by PI/RNase staining based flow cytometric analysis (RVB = 10.90%); type: functional
[27] = Acute toxicity in C57BL/6J mouse assessed as mortality at 1000 to 5000 mg/kg measured after 14 days; type: organism-based; settings: in vivo, 336 h, dose 1000-5000 mg/kg, time 14 day
[28] = Acute toxicity in C57BL/6J mouse assessed as secretion in eye corner at 5000 mg/kg measured after 14 days; type: organism-based; settings: in vivo, 336 h, time 14 day
[29] = Acute toxicity in C57BL/6J mouse assessed as safety concern at 1000 to 5000 mg/kg measured after 14 days; type: organism-based; settings: in vivo, 336 h, dose 1000-5000 mg/kg, time 14 day

CCc1nc2c(C)cc(-c3ccc(CN4CCN(CCO)CC4)cc3)cn2c1NC(=O)OCc1cc(Cl)cc(Cl)c1
IC50 (MCF7): 3.87 µM | IC50 (MDA-MB-231): 3.29 µM | IC50 (A549): 6.59 µM | IC50 (NCI-H1581): 4.76 µM | IC50 (Hep 3B2): 0.58 µM | IC50 (RAW264.7 [1]): 0.63 µM | Activity (RAW264.7 [2]): Dde | inhibition (RAW264.7 [3]): Dde | Activity (RAW264.7 [4]): Dde | Activity (RAW264.7 [5]): Dde | viability at 0.1 µM (RAW264.7 [6]): 92.8% | Activity (RAW264.7 [7]): 6.04% | Activity (RAW264.7 [8]): 0.44% | viability at 0.25 µM (RAW264.7 [9]): 92% | Activity (RAW264.7 [10]): 1.73% | Activity (RAW264.7 [11]): 7.65% | Activity (RAW264.7 [12]): 0.95% | Activity (RAW264.7 [13]): 1.03% | viability at 1 µM (RAW264.7 [14]): 90% | Activity (RAW264.7 [15]): 8.43% | Activity (RAW264.7 [16]): 0.74% | Activity (RAW264.7 [17]): 0.83% | Activity (RAW264.7 [18]): 14.72% | Activity (RAW264.7 [19]): 25.72% | Activity (RAW264.7 [20]): 18.57% | Activity (RAW264.7 [21]): 70.82% | Activity (RAW264.7 [22]): 21.13% | Activity (RAW264.7 [23]): 4.78% | Activity (RAW264.7 [24]): 7.22% | Activity (RAW264.7 [25]): 2.63% | Activity (RAW264.7 [26]): 90.16% | Activity [27]: Non-Toxic | Activity [28]: Toxic | Activity [29]: Non-Toxic
